Data as given in ChEMBL document CHEMBL4295262, “Evaluation of the utility of stem-cell derived cardiomyocytes for drug proarrhythmic potential” (2019).

Key:
[1] = (§1) Electrical activity assay on cell lines treated with a given drug. DMSO was used as a vehicle and a control, unblinded dofetilide was used as a control.; settings: human, ipsc-cm, 0.003 µM
[2] = as §1; assay type: ADME, cell-based; settings: human, ipsc-cm, 0.005 µM; concentration (um) 0.005 uM
[3] = as §1; assay type: ADME, cell-based; set-up: FPDc: unit not given here; settings: human, ipsc-cm
[4] = as §1; settings: human, ipsc-cm
[5] = as §1; assay type: ADME, cell-based; settings: human, ipsc-cm, 0.003 µM; concentration (um) 0.003 uM
[6] = as §1; assay type: cell-based; set-up: APDc: unit not given here; settings: human, ipsc-cm
[7] = as §1; settings: human, ipsc-cm; remark: listed apart in the source
[8] = as §1; settings: human, ipsc-cm; remark: listed apart in the source
[9] = as §1; assay type: ADME, cell-based; set-up: FPDc: unit not given here; settings: human, ipsc-cm, 0.003 µM; concentration (um) 0.003 uM
[10] = 0.0032 µM, concentration (um) 0.0032 uM
[11] = 0.01 µM, concentration (um) 0.01 uM
[12] = 0.0003169 µM, concentration (um) 0.000316912 uM
[13] = 0.001001 µM, concentration (um) 0.00100144 uM
[14] = 0.003165 µM, concentration (um) 0.00316456 uM
[15] = 0.005 µM, concentration (um) 0.005 uM
[16] = 3.169 µM, concentration (um) 3.16912 uM
[17] = 10.01 µM, concentration (um) 10.0144 uM
[18] = 31.65 µM, concentration (um) 31.6456 uM
[19] = 100 µM, concentration (um) 100 uM

## CN(CCOc1ccc(NS(C)(=O)=O)cc1)CCc1ccc(NS(C)(=O)=O)cc1 [DOFETILIDE]
[1]
  APDc: 63.81
  FPD measurement: 63.81 FPDc
[2]
  FPD measurement: 59.84 FPDc
  FPDc: 24 Values Out Of 24 Were Excluded Due To Quiescence Or 0 Fpdc
[3]; 0.0003 µM, concentration (um) 0.0003 uM
  FPDc: 0.03867
[3]; 0.001 µM, concentration (um) 0.001 uM
  FPDc: 0.04061
[3]; 0.003 µM, concentration (um) 0.003 uM
  FPDc: 0.05119
[3]; [10]
  FPD measurement: More Than Half The Wells Had A Quiescence Event Or Fpdc Readings Of 0
  FPDc: More Than Half The Wells Had A Quiescence Event Or Fpdc Readings Of 0
[3]; [11]
  FPD measurement: More Than Half The Wells Had A Quiescence Event Or Fpdc Readings Of 0
  FPDc: More Than Half The Wells Had A Quiescence Event Or Fpdc Readings Of 0
[4]; 0.0003169 µM
  FPD measurement: 57.26 FPDc
  FPDc: 57.26
[4]; 0.001001 µM
  FPD measurement: 62.9 FPDc
  FPDc: 62.9
[4]; 0.003 µM
  FPD measurement: 58.92 FPDc
  FPDc: 58.92
[4]; 0.003165 µM
  FPD measurement: 74.44 FPDc
  FPDc: 74.44
[4]; 0.0033 µM
  FPD measurement: 77.41 FPDc
  FPDc: 77.41
[4]; 0.01 µM
  FPD measurement: More Than Half The Wells Had A Quiescence Event Or Fpdc Readings Of 0
  FPDc: More Than Half The Wells Had A Quiescence Event Or Fpdc Readings Of 0
[5]
  FPD measurement: More Than Half The Wells Had A Quiescence Event Or Apdc Readings Of 0
  FPDc: More Than Half The Wells Had A Quiescence Event Or Fpdc Readings Of 0
[6]; [12]
  APDc: 62.54
  FPD measurement: 62.54 FPDc
[6]; [13]
  APDc: 77.55
  FPD measurement: 77.55 FPDc
[6]; [14]
  APDc: 79.29
  FPD measurement: 79.29 FPDc
[6]; [15]
  APDc: 61.92
  FPD measurement: 61.92 FPDc
[7]; 0.0003169 µM
  FPD measurement: 1 Values Out Of 1 Were Excluded Due To Quiescence Or 0 Fpdc
  FPDc: 1 Values Out Of 1 Were Excluded Due To Quiescence Or 0 Fpdc
[7]; 0.001001 µM
  FPD measurement: 1 Values Out Of 1 Were Excluded Due To Quiescence Or 0 Fpdc
  FPDc: 1 Values Out Of 1 Were Excluded Due To Quiescence Or 0 Fpdc
[7]; 0.003165 µM
  FPD measurement: 1 Values Out Of 1 Were Excluded Due To Quiescence Or 0 Fpdc
  FPDc: 1 Values Out Of 1 Were Excluded Due To Quiescence Or 0 Fpdc
[7]; 0.01 µM
  FPD measurement: 1 Values Out Of 1 Were Excluded Due To Quiescence Or 0 Fpdc
  FPDc: 1 Values Out Of 1 Were Excluded Due To Quiescence Or 0 Fpdc
[8]; 0.0003169 µM
  FPD measurement: 5 Values Out Of 5 Were Excluded Due To Quiescence Or 0 Apdc
  FPDc: 74.54
[8]; 0.001001 µM
  FPD measurement: 5 Values Out Of 5 Were Excluded Due To Quiescence Or 0 Apdc
  FPDc: 77.51
[8]; 0.003 µM
  FPDc: 91.98
[8]; 0.003165 µM
  FPD measurement: 5 Values Out Of 5 Were Excluded Due To Quiescence Or 0 Apdc
  FPDc: 81.19
[8]; 0.01 µM
  FPD measurement: 5 Values Out Of 5 Were Excluded Due To Quiescence Or 0 Apdc
  FPDc: More Than Half The Wells Had A Quiescence Event Or Fpdc Readings Of 0
[9]
  FPDc: 32.45

## COCCc1ccc(OCC(O)CNC(C)C)cc1 (centres undefined) [METOPROLOL]
[3]; [16]
  FPDc: 0.03359
[3]; [17]
  FPDc: 0.03613
[3]; [18]
  FPDc: 0.03258
[3]; [19]
  FPD measurement: More Than Half The Wells Had A Quiescence Event Or Fpdc Readings Of 0
  FPDc: More Than Half The Wells Had A Quiescence Event Or Fpdc Readings Of 0
[4]; 3.169 µM
  FPD measurement: 54.76 FPDc
  FPDc: 54.76
[4]; 10.01 µM
  FPD measurement: 55.07 FPDc
  FPDc: 55.07
[4]; 31.65 µM
  FPD measurement: 53.88 FPDc
  FPDc: 53.88
[4]; 100 µM
  FPD measurement: 71.03 FPDc
  FPDc: 71.03
[6]; [16]
  APDc: 42.47
  FPD measurement: 42.47 FPDc
[6]; [17]
  APDc: 43.54
  FPD measurement: 43.54 FPDc
[6]; [18]
  APDc: 43.18
  FPD measurement: 43.18 FPDc
[6]; [19]
  APDc: 55.84
  FPD measurement: 55.84 FPDc
[7]; 3.169 µM
  FPD measurement: 1 Values Out Of 1 Were Excluded Due To Quiescence Or 0 Fpdc
  FPDc: 1 Values Out Of 1 Were Excluded Due To Quiescence Or 0 Fpdc
[7]; 10.01 µM
  FPD measurement: 1 Values Out Of 1 Were Excluded Due To Quiescence Or 0 Fpdc
  FPDc: 1 Values Out Of 1 Were Excluded Due To Quiescence Or 0 Fpdc
[7]; 31.65 µM
  FPD measurement: 1 Values Out Of 1 Were Excluded Due To Quiescence Or 0 Fpdc
  FPDc: 1 Values Out Of 1 Were Excluded Due To Quiescence Or 0 Fpdc
[7]; 100 µM
  FPD measurement: 1 Values Out Of 1 Were Excluded Due To Quiescence Or 0 Fpdc
  FPDc: 1 Values Out Of 1 Were Excluded Due To Quiescence Or 0 Fpdc
[8]; 3.169 µM
  FPDc: 61.11
[8]; 10.01 µM
  FPDc: 74.38
[8]; 31.65 µM
  FPDc: 72.23
[8]; 100 µM
  FPDc: 68
